# Columns and labels:
# Assay type in all cases: cell-based
# Conditions in all cases: 24 hours of compound treatment
# [1] = biological target: T1, WEE1 (Homo sapiens, UniProt P30291+Q96SW2); test: Western-blot assay of substrate protein degradation in hPBMCs, WEE1
# T1 construct: endogenous in cells; host or cells: hPBMCs (Milecell Biotechnologies)
# [2] = biological target: T2, IKZF1 (Homo sapiens, UniProt Q13422+Q96SW2); test: Western-blot assay of substrate protein degradation in hPBMCs, IKZF1
# T2 construct: endogenous in cells; host or cells: hPBMCs (Milecell Biotechnologies)
# [3] = biological target: T3, IKZF2 (Homo sapiens, UniProt Q96SW2+Q9UKS7); test: Western-blot assay of substrate protein degradation in hPBMCs, IKZF2
# T3 construct: endogenous in cells; host or cells: hPBMCs (Milecell Biotechnologies)
# [4] = biological target: T4, IKZF3 (Homo sapiens, UniProt Q96SW2+Q9UKT9); test: Western-blot assay of substrate protein degradation in hPBMCs, IKZF3
# T4 construct: endogenous in cells; host or cells: hPBMCs (Milecell Biotechnologies)
# [5] = biological target: T5, CK1α (Homo sapiens, UniProt P48729+Q96SW2); test: Western-blot assay of substrate protein degradation in hPBMCs, CK1α
# T5 construct: endogenous in cells; host or cells: hPBMCs (Milecell Biotechnologies)
# [6] = biological target: T6, GSPT1 (Homo sapiens, UniProt P15170+Q96SW2); test: Western-blot assay of substrate protein degradation in hPBMCs, GSPT1
# T6 construct: endogenous in cells; host or cells: hPBMCs (Milecell Biotechnologies)
# [7] = 50 nM and 500 nM tested (concentration behind the class not stated)
# [8] = compounds tested at 50 nM and 500 nM (concentration of the table not stated)
# T1 sequence (P30291 whole entry): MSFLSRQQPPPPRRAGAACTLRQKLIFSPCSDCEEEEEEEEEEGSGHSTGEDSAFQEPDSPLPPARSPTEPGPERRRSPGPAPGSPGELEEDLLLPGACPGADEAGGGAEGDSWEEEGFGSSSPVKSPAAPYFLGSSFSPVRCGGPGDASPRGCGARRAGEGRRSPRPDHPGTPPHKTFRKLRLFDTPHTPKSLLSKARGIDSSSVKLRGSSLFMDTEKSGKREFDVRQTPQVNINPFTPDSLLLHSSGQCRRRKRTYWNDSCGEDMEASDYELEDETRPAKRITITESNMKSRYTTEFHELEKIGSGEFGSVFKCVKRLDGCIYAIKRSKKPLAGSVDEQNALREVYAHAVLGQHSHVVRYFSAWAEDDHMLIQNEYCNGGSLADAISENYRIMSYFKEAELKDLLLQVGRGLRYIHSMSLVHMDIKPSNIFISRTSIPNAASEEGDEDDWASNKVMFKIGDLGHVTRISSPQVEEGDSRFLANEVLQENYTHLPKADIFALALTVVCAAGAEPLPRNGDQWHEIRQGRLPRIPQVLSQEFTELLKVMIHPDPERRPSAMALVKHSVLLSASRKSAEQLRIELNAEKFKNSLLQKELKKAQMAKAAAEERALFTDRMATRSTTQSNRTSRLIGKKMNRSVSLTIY
# T1 sequence (Q96SW2 whole entry): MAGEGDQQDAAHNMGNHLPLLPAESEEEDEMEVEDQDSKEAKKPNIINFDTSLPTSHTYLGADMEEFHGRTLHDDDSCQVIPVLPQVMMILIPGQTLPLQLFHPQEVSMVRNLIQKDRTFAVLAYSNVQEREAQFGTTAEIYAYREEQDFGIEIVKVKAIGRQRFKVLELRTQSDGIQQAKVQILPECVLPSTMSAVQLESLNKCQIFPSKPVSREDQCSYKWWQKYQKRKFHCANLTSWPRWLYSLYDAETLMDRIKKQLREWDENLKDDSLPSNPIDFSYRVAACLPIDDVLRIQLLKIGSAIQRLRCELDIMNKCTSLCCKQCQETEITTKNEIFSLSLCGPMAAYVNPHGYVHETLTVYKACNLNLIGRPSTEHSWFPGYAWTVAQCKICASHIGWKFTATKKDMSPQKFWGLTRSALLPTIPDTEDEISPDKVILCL
# T1 sequence (Q16531 whole entry partner): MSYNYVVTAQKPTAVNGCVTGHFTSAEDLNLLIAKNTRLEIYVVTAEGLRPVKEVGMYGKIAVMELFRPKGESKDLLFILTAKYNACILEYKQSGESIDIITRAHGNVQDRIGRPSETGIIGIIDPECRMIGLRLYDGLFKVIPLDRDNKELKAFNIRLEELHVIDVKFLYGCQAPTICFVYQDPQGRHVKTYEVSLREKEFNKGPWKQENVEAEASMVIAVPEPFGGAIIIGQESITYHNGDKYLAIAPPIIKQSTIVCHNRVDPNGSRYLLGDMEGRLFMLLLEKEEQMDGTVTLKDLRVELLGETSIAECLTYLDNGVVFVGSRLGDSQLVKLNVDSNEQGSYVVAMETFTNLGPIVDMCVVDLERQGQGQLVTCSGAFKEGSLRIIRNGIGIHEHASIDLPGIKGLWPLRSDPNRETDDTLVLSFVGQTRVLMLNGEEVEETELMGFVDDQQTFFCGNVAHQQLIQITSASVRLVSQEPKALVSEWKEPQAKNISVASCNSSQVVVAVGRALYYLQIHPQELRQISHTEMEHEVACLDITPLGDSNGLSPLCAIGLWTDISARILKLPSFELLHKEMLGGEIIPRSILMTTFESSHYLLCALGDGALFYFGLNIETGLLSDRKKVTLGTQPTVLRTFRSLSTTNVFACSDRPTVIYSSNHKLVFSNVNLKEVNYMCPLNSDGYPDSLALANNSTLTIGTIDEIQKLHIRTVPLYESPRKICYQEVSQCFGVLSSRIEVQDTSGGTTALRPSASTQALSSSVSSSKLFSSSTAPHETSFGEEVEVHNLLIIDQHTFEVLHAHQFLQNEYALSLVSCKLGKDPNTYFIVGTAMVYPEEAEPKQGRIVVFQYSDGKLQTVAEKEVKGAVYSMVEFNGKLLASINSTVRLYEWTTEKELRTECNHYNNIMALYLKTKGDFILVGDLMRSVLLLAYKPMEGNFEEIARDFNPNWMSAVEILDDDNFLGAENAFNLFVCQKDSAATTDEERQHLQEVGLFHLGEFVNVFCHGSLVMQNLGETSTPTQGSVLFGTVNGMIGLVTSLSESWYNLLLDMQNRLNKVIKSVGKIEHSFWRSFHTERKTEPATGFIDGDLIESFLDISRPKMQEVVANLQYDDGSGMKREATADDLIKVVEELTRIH
# T2 sequence (Q13422 whole entry): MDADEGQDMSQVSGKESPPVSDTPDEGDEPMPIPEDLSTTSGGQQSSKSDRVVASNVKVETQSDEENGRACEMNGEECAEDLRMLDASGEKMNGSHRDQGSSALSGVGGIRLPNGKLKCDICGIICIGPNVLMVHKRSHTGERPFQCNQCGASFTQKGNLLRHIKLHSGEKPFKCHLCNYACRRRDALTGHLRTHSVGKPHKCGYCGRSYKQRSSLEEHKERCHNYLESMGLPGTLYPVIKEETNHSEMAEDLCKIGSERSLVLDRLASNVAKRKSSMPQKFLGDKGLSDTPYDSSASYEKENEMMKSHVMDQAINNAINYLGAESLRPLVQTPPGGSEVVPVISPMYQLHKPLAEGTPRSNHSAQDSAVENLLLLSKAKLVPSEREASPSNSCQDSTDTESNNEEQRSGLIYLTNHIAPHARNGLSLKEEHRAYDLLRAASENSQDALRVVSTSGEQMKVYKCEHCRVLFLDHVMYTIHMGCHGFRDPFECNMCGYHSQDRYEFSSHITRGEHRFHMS
# T2 sequence (Q96SW2 whole entry): as the sequence (Q96SW2 whole entry) above
# T2 sequence (Q16531 whole entry partner): as the sequence (Q16531 whole entry partner) above
# T5 sequence (P48729 whole entry): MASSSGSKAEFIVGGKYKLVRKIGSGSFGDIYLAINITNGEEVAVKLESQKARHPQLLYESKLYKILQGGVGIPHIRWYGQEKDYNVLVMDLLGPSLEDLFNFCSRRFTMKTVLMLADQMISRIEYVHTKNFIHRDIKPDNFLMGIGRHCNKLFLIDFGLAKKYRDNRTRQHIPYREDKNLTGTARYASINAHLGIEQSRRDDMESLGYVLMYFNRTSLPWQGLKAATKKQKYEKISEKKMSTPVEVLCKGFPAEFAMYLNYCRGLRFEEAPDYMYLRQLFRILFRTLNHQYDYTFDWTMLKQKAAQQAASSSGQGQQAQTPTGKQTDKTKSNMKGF
# T5 sequence (Q96SW2 whole entry): as the sequence (Q96SW2 whole entry) above
# T5 sequence (Q16531 whole entry partner): as the sequence (Q16531 whole entry partner) above
# T4 sequence (Q9UKT9 whole entry): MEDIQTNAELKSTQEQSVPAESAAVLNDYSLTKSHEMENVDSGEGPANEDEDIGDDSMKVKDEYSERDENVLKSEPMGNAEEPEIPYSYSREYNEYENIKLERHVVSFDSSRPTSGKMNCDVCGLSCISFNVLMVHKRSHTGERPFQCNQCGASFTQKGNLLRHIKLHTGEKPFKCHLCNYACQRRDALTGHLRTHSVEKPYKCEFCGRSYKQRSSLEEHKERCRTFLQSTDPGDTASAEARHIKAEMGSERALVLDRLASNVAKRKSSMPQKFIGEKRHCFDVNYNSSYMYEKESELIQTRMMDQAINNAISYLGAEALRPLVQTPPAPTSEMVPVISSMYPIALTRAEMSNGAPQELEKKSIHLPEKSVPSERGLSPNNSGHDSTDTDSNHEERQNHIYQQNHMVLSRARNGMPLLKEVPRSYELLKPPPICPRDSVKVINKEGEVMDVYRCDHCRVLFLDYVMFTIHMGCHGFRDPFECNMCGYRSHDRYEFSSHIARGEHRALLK
# T4 sequence (Q96SW2 whole entry): as the sequence (Q96SW2 whole entry) above
# T4 sequence (Q16531 whole entry partner): as the sequence (Q16531 whole entry partner) above
# T6 sequence (P15170 whole entry): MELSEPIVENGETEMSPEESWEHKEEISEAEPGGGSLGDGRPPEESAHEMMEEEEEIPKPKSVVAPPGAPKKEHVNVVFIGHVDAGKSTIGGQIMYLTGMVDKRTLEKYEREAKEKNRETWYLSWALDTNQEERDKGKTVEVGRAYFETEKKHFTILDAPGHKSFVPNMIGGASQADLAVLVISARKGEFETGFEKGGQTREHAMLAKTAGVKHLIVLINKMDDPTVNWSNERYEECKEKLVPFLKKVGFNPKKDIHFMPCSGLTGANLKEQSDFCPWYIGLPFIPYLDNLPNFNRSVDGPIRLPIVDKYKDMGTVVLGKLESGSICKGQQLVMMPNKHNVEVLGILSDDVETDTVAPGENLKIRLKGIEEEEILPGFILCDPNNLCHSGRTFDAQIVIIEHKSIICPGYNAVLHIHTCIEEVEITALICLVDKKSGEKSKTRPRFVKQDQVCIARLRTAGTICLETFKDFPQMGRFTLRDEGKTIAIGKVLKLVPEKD
# T6 sequence (Q96SW2 whole entry): as the sequence (Q96SW2 whole entry) above
# T6 sequence (Q16531 whole entry partner): as the sequence (Q16531 whole entry partner) above
Compound,"Weel substrate protein remaining % [1, 7]","IKZF 1 substrate protein remaining % [2, 7]","IKZF2 substrate protein remaining % [3, 7]","IKZF3 substrate protein remaining % [4, 7]","CK1a substrate protein remaining % [5, 7]","GSPT1 substrate protein remaining % [6, 7]","Weel substrate protein remaining % [1, 8]","IKZF 1 substrate protein remaining % [2, 8]","IKZF2 substrate protein remaining % [3, 8]","IKZF3 substrate protein remaining % [4, 8]","CK1a substrate protein remaining % [5, 8]","GSPT1 substrate protein remaining % [6, 8]"
"O=C1CCC(N2C(=O)c3ccc(CN4CCN(c5ccccc5Cl)CC4)cc3C2=O)C(=O)N1 (stereo not drawn) [GT-06274, 5-((4-(2-chlorophenyl)piperazin-1-yl)methyl)-2-(2,6-dioxopiperidin-3-yl)isoindoline-1,3-dione]",B (80%< substrate protein remaining %≤ 100%),B (80%< substrate protein remaining %≤ 100%),B (80%< substrate protein remaining %≤ 100%),B (80%< substrate protein remaining %≤ 100%),B (80%< substrate protein remaining %≤ 100%),A (0% ≤ substrate protein remaining % ≤ 80%),,,,,,
"O=C1CCC(N2C(=O)c3ccc(CN4CCn5c(nnc5C(F)(F)F)C4)cc3C2=O)C(=O)N1 (stereo not drawn) [GT-04921, 2-(2,6-dioxopiperidin-3-yl)-5-((3-(trifluoromethyl)-5,6-dihydro-[1,2,4]triazolo[4,3-a]pyrazin-7(8H)-yl)methyl)isoindoline-1,3-dione]",,,,,,,A (0% ≤ substrate protein remaining % ≤ 80%),A (0% ≤ substrate protein remaining % ≤ 80%),B (80%< substrate protein remaining %≤ 100%),B (80%< substrate protein remaining %≤ 100%),B (80%< substrate protein remaining %≤ 100%),B (80%< substrate protein remaining %≤ 100%)
"O=C1CCC(N2C(=O)c3cccc(CN4CCC(c5noc6cc(F)ccc56)CC4)c3C2=O)C(=O)N1 (stereo not drawn) [GT-04770, 2-(2,6-dioxopiperidin-3-yl)-4-((4-(6-fluorobenzo[d]isoxazol-3-yl)piperidin-1-yl)methyl)isoindoline-1,3-dione]",,,,,,,B (80%< substrate protein remaining %≤ 100%),B (80%< substrate protein remaining %≤ 100%),B (80%< substrate protein remaining %≤ 100%),B (80%< substrate protein remaining %≤ 100%),B (80%< substrate protein remaining %≤ 100%),A (0% ≤ substrate protein remaining % ≤ 80%)
"Cc1cc(C2=CCN(Cc3ccc4c(c3)C(=O)N(C3CCC(=O)NC3=O)C4=O)CC2)cs1 (stereo not drawn) [GT-06279, 2-(2,6-dioxopiperidin-3-yl)-5-((4-(5-methylthiophen-3-yl)-3,6-dihydropyridin-1(2H)-yl)methyl)isoindoline-1,3-dione]",A (0% ≤ substrate protein remaining % ≤ 80%),A (0% ≤ substrate protein remaining % ≤ 80%),A (0% ≤ substrate protein remaining % ≤ 80%),A (0% ≤ substrate protein remaining % ≤ 80%),A (0% ≤ substrate protein remaining % ≤ 80%),A (0% ≤ substrate protein remaining % ≤ 80%),,,,,,
"Cc1cc(C2CCN(Cc3ccc4c(c3)C(=O)N(C3CCC(=O)NC3=O)C4=O)CC2)cs1 (stereo not drawn) [GT-06283, 2-(2,6-dioxopiperidin-3-yl)-5-((4-(5-methylthiophen-3-yl)piperidin-1-yl)methyl)isoindoline-1,3-dione]",B (80%< substrate protein remaining %≤ 100%),B (80%< substrate protein remaining %≤ 100%),B (80%< substrate protein remaining %≤ 100%),B (80%< substrate protein remaining %≤ 100%),B (80%< substrate protein remaining %≤ 100%),A (0% ≤ substrate protein remaining % ≤ 80%),,,,,,
"O=C1CCC(N2C(=O)c3ccc(CN4CCC(c5ccon5)CC4)cc3C2=O)C(=O)N1 (stereo not drawn) [GT-06628, 2-(2,6-dioxopiperidin-3-yl)-5-((4-(isoxazol-3-yl)piperidin-1-yl)methyl)isoindoline-1,3-dione]",B (80%< substrate protein remaining %≤ 100%),B (80%< substrate protein remaining %≤ 100%),B (80%< substrate protein remaining %≤ 100%),B (80%< substrate protein remaining %≤ 100%),B (80%< substrate protein remaining %≤ 100%),A (0% ≤ substrate protein remaining % ≤ 80%),,,,,,
"O=C1CCC(N2C(=O)c3ccc(CN4CCC(c5ccco5)CC4)cc3C2=O)C(=O)N1 (stereo not drawn) [GT-06284, 2-(2,6-dioxopiperidin-3-yl)-5-((4-(furan-2-yl)piperidin-1-yl)methyl)isoindoline-1,3-dione]",B (80%< substrate protein remaining %≤ 100%),B (80%< substrate protein remaining %≤ 100%),B (80%< substrate protein remaining %≤ 100%),B (80%< substrate protein remaining %≤ 100%),B (80%< substrate protein remaining %≤ 100%),A (0% ≤ substrate protein remaining % ≤ 80%),,,,,,
"Cc1nc(C2CCN(Cc3ccc4c(c3)C(=O)N(C3CCC(=O)NC3=O)C4=O)CC2)c2c3c(sc2n1)CCCC3 (stereo not drawn) [GT-06648, 2-(2,6-dioxopiperidin-3-yl)-5-((4-(2-methyl-5,6,7,8-tetrahydrobenzo[4,5]thieno[2,3-d]pyrimidin-4-yl)piperidin-1-yl)methyl)isoindoline-1,3-dione]",A (0% ≤ substrate protein remaining % ≤ 80%),B (80%< substrate protein remaining %≤ 100%),A (0% ≤ substrate protein remaining % ≤ 80%),B (80%< substrate protein remaining %≤ 100%),A (0% ≤ substrate protein remaining % ≤ 80%),A (0% ≤ substrate protein remaining % ≤ 80%),,,,,,
"O=C1CCC(N2C(=O)c3ccc(CN4CCC(c5cccs5)CC4)cc3C2=O)C(=O)N1 (stereo not drawn) [GT-06224, 2-(2,6-dioxopiperidin-3-yl)-5-((4-(thiophen-2-yl)piperidin-1-yl)methyl)isoindoline-1,3-dione]",A (0% ≤ substrate protein remaining % ≤ 80%),A (0% ≤ substrate protein remaining % ≤ 80%),B (80%< substrate protein remaining %≤ 100%),A (0% ≤ substrate protein remaining % ≤ 80%),A (0% ≤ substrate protein remaining % ≤ 80%),A (0% ≤ substrate protein remaining % ≤ 80%),,,,,,
"O=C1CCC(N2Cc3cc(CN4CCn5c(nnc5C(F)(F)F)C4)ccc3C2=O)C(=O)N1 (stereo not drawn) [GT-04199, 3-(1-oxo-5-((3-(trifluoromethyl)-5,6-dihydro-[1,2,4]triazolo[4,3-a]pyrazin-7(8H)-yl)methyl)isoindolin-2-yl)piperidine-2,6-dione]",,,,,,,A (0% ≤ substrate protein remaining % ≤ 80%),B (80%< substrate protein remaining %≤ 100%),A (0% ≤ substrate protein remaining % ≤ 80%),A (0% ≤ substrate protein remaining % ≤ 80%),B (80%< substrate protein remaining %≤ 100%),B (80%< substrate protein remaining %≤ 100%)
"O=C1CCC(N2C(=O)c3ccc(CN4CCN(c5c(Cl)ccnc5Cl)CC4)cc3C2=O)C(=O)N1 (stereo not drawn) [GT-06552, 5-((4-(2,4-dichloropyridin-3-yl)piperazin-1-yl)methyl)-2-(2,6-dioxopiperidin-3-yl)isoindoline-1,3-dione]",B (80%< substrate protein remaining %≤ 100%),B (80%< substrate protein remaining %≤ 100%),A (0% ≤ substrate protein remaining % ≤ 80%),B (80%< substrate protein remaining %≤ 100%),B (80%< substrate protein remaining %≤ 100%),A (0% ≤ substrate protein remaining % ≤ 80%),,,,,,
"O=C1CCC(N2C(=O)c3ccc(CN4CCN(c5cccc(Cl)c5Cl)CC4)cc3C2=O)C(=O)N1 (stereo not drawn) [GT-06273, 5-((4-(2,3-dichlorophenyl)piperazin-1-yl)methyl)-2-(2,6-dioxopiperidin-3-yl)isoindoline-1,3-dione]",A (0% ≤ substrate protein remaining % ≤ 80%),A (0% ≤ substrate protein remaining % ≤ 80%),A (0% ≤ substrate protein remaining % ≤ 80%),A (0% ≤ substrate protein remaining % ≤ 80%),A (0% ≤ substrate protein remaining % ≤ 80%),A (0% ≤ substrate protein remaining % ≤ 80%),,,,,,
"O=C1CCC(N2C(=O)c3ccc(CN4C[C@@H]5C[C@H]4CN5c4cccc(Cl)c4Cl)cc3C2=O)C(=O)N1 (stereo partly drawn) [GT-06691, 5-(((1S,4S)-5-(2,3-dichlorophenyl)-2,5-diazabicyclo[2.2.1]heptan-2-yl)methyl)-2-(2,6-dioxopiperidin-3-yl)isoindoline-1,3-dione]",A (0% ≤ substrate protein remaining % ≤ 80%),B (80%< substrate protein remaining %≤ 100%),A (0% ≤ substrate protein remaining % ≤ 80%),B (80%< substrate protein remaining %≤ 100%),B (80%< substrate protein remaining %≤ 100%),A (0% ≤ substrate protein remaining % ≤ 80%),,,,,,

# Source: EP4745137A1 (Gluetacs Therapeutics (Shanghai) Co., Ltd., priority 2023, dated 2025)
